Each structure is given as a SMILES string. “Also recorded” adds a separate entry of the source.

Series [1] has as its system glutamatergic excitatory synapses in the cortex. Description: Synapse assay on mouse brain sections (VGlut2/PSD95 co-localized puncta in cortex) after GBP injection. The series is classed as in vivo, mice. As to the method:
To determine whether GBP similarly blocks synapse formation in vivo, neonatal mice were injected with either GBP or saline, for the first postnatal week, which coincides with the initiation of synapse formation in the brain (see Experimental Procedures). […] At this age P7 glutamatergic synapses in the cortex are predominantly VGlut2 positive (Miyazaki et al., The Eur. J. of Neuroscience, 17:2563-2572, 2003). Therefore, co-immunostaining of sagital brain sections from (P7) saline or GBP-injected, mice was carried out with antibodies against VGlut2 and PSD95 and the number of co-localized pre- and post-synaptic puncta was quantified to determine synaptic density in the cortex of these mice. […] This difference was mainly due to a severe decrease in synapse number in half of the GBP injected animals. […] GBP injection affected both VGlut2 and PSD95 puncta by reducing their number, size, and co-localization (FIG. 7E) similar to its effect on synaptic puncta in vitro (FIG. 7A). […] It is interesting that the effect of GBP in vivo is an “all or none” effect rather than a gradual decrease in synapse number, and that only 50% of the mice responded to GBP injection. This could be due to a critical threshold concentration of GBP necessary to be effective in blocking synapse formation, which might only be achieved in some of the mice. In three repeated experiments, however, we observed only half of the mice were affected by GBP, even when we increased the total dosage and frequency from once a day to three times per day (see below and Experimental Procedures), and even though an inbred strain of mice was used.
Brains were immersed in 4% paraformaldehyde (PFA), fixed overnight at 4° C., and cryo-protected in 30% sucrose. For synaptic staining, tissue was embedded in a 2:1 mixture of 20% sucrose:OCT in PBS, and cryo-sectioned (12 μm). Sections were dried at 37° C., washed three times in PBS, and blocked with 20% normal goat serum (NGS, Invitrogen) in PBS 1 hr. Primary antibodies were diluted in PBS with 0.3% triton and 10% NGS as follows: PSD95 (Zymed, rabbit, 1:500) and VGlut1 and VGlut2 (Chemicon, guinea pig, 1:2500) incubated overnight at 4° C. […]
Three independent sagital brain sections per animal were stained with pre- and post-synaptic markers and 5 μm confocal scans were performed (optical section width 0.38 μm, 14 optical sections each) at the cortex. […] Merged single optical section images at 1 μm intervals were analyzed using the ImageJ-puncta analyzer option to count for number of co-localized pre- and post-synaptic puncta (5 optical sections per brain section and 15 total images per brain). Average synaptic density per imaged area was calculated for each condition. […]

Another series has as its system barrel cortex. Description: Lesion-induced barrel cortex plasticity assay in neonatal mice. The format is in vivo. An excerpt:
Understanding how the brain remodels its neuronal networks has been a major goal of neurobiology, as these processes underlie learning, memory and recovery from injury. Is astrocyte-induced synapse formation involved in remodeling neural circuits during development? To explore this question a well-established developmental plasticity paradigm, ‘the barrel cortex plasticity’ assay, was used. The nerves that innervate the major whiskers on the snout of the mouse project to the brain as a topographically ordered “somatotopic” map where afferent axons and target cells form ordered modules that recapitulate the structural organization seen on the whisker pad (Erzurumlu et al., The Anatomical Record 288:121-134, 2006). First, neurons of the trigeminal nerve innervate the mystacial vibrissae (whiskers) and send projections […]. These projections then form synapses at the brainstem (barrelettes) and their afferents then project and synapse at the thalamus (barreloids). […]
Two groups of neonatal mice were injected either with GBP or an equal volume of saline daily starting at P0 until P7. […] The mice were then sacrificed at P7 and their barrel structure corresponding to both the unlesioned “control” hemisphere and the lesioned hemisphere were analyzed. […]

Series [2] concerns RGCs. To be noted: culture media containing GBP.
The subject of series [3] is RGCs. Description: RGC neurite outgrowth. The settings on record: data not shown.

Take `NCC1(CC(=O)O)CCCCC1` [Gabapentin, 1-(aminomethyl)cyclohexaneacetic acid]: the “proportion of injected mice that responded (severe reduction of synaptic puncta)” value in series [1] (P7 mice) came out at 50%. Further, in series [1] (P7 mice injected i.p. daily in first postnatal week, vs saline, listed as GBP), the “density of VGlut2/PSD95 excitatory synapses in the cerebral cortex” value is “significant decrease in the density of excitatory synapses; also recorded: significant decrease in the number of VGlut2-PSD95 synapses”. Further, the “VGlut2/PSD95 synaptic density relative to saline injected values” in series [1] (in the half of the mice that responded) is “less than 10%”. The number of neurons entry in series [1] (responding mice) is on record as “no apparent effect on the number of neurons”. In addition, the “barrel formation on unlesioned control side” value in the series on barrel cortex (daily injection P0 to P7, listed as GBP) is on record as “typical barrels formed on the control side; also recorded: did not affect the barrel cortex formation”. In addition, in the series with barrel cortex (lesioned side, daily injection P0 to P7, C-row whisker lesion at P1), the “proportion of injected mice with atypical/aberrant barrel cortex plasticity response” value is on record as 50%. The same compound registered an RGC survival with RGCs [2] of 66.5±4.1%. Moreover, the neurite outgrowth result with RGCs [3] is given as “did not affect neurite outgrowth”.

These data come from patent US8491897B2, “Treatment of neuropathic pain using anti-thrombospondin antibodies” (The Board of Trustees of the Leland Stanford Junior …, priority 2007, dated 2013).
